Like-named read-outs stand apart in the source and are kept apart here.
What was measured:
[1] = Phase 1 study in subjects with hepatic impairment: safety; type: in vivo, humans; details: for Number of subjects reporting treatment-emergent AEs: 800 mg Day 1, 400 mg Days 2-5
Description: Safety of solithromycin in humans with hepatic insufficiency.
(§1) Safety and Pharmacokinetics of solithromycin in Subjects with Hepatic Impairment. The safety, pharmacokinetics (PK), and protein binding of solithromycin was evaluated in subjects with mild, moderate, and severe hepatic impairment compared to healthy subjects with normal hepatic function (matched for age, weight, and gender). The evaluation was performed in a Phase 1, open-label, multiple-dose study in subjects with mild (Child-Pugh Class A), moderate (Child-Pugh Class B), and severe (Child-Pugh Class C) hepatic impairment and healthy matched control subjects with normal hepatic function. All subjects received a once-daily dose of 800 mg on Day 1 followed by 400 mg on Days 2 through 5.
33 subjects were enrolled: 8 with mild impairment (mean Child-Pugh score 5.625), 8 with moderate impairment (mean Child-Pugh score 7.375), 8 with severe impairment (mean Child-Pugh score 10.625), and 9 healthy controls with normal hepatic function. One subject, a healthy control, discontinued study drug after 2 doses due to a rash; all other subjects (n=32) completed the study. Overall, the number of subjects reporting treatment-emergent AEs in the hepatic impaired cohorts (mild n=1, moderate n=4, severe n=4) was no greater than in the control group (n=4).

[2] = Phase 1 study in subjects with hepatic impairment: pharmacokinetics and protein binding; type: in vivo, humans; set-up: AUC(0-t): concentration or dose not given beside the values; details: for AUC0-t Geometric Mean Ratio (%) (test/reference) / AUC0-tau Geometric Mean Ratio (%) (test/reference) / Cmax Geometric Mean Ratio (%) (test/reference) / AUC(0-t) / AUC / Cmax: Day 5; for AUC(0-t) / AUC / Cmax / half-life: human, plasma
Description: as §1
PK parameters on Day 5 were compared between the hepatic impaired cohorts and the control group, and geometric mean ratios were calculated.

For `CC[C@H]1OC(=O)[C@@](C)(F)C(=O)[C@H](C)[C@@H](O[C@@H]2O[C@H](C)C[C@H](N(C)C)[C@H]2O)[C@](C)(OC)C[C@@H](C)C(=O)[C@H](C)[C@H]2N(CCCCn3cc(-c4cccc(N)c4)nn3)C(=O)O[C@]12C` [solithromycin], the “Most commonly reported AEs” value ([1]; all cohorts) was “mild diarrhea and mild headache”, the “Mean changes from baseline in liver function tests on Day 8” value ([1]; any cohort, after 5 days of administration) was “not clinically significant” and the “ALT mean (±SD) change from baseline on Day 8” value (“ALT mean (±SD) change” for short) ([1]; control cohort) was 2.6±4.47 IU/L. The “AST mean (±SD) change from baseline on Day 8” value (“AST mean (±SD) change” below) ([1]; control cohort) was −0.6±2.92 IU/L, the “Direct bilirubin mean (±SD) change from baseline on Day 8” value (shortened to “Direct bilirubin mean (±SD) change”) ([1]; control cohort) was 0.00 ± 0.053 mg/dL and the “Number of subjects reporting treatment-emergent AEs” value (from here on “Number”) ([1]; healthy control group (9 enrolled)) was 4. For the same compound, the “Safety compared to healthy controls” value ([1]; humans with hepatic impairment, same doses) was “no significant differences in safety”, the Tolerability ([1]; humans with mild, moderate and severe hepatic impairment, doses as high as 800 mg) was “well tolerated” and the “ALT mean (±SD) change” value ([1]; mild hepatic impairment) was 4.0±8.00 IU/L. The “AST mean (±SD) change” value ([1]; mild hepatic impairment) was 0.4±5.93 IU/L, the “Direct bilirubin mean (±SD) change” value ([1]; mild hepatic impairment) was 0.00 ± 0.076 mg/dL and the “Number” value ([1]; mild hepatic impairment (8 enrolled)) was 1. The “ALT mean (±SD) change” value ([1]; moderate hepatic impairment) was 7.8±6.92 IU/L, the “AST mean (±SD) change” value ([1]; moderate hepatic impairment) was 0.1±10.56 IU/L and the “Direct bilirubin mean (±SD) change” value ([1]; moderate hepatic impairment) was 0.03 ± 0.046 mg/dL. The “Number” value ([1]; moderate hepatic impairment (8 enrolled)) was 4, the “ALT mean (±SD) change” value ([1]; severe hepatic impairment) was 6.3±14.61 IU/L and the “AST mean (±SD) change” value ([1]; severe hepatic impairment) was 5.8±22.44 IU/L. The “Direct bilirubin mean (±SD) change” value ([1]; severe hepatic impairment) was 0.04 ± 0.207 mg/dL, the “Number” value ([1]; severe hepatic impairment (8 enrolled)) was 4 and the “AUC0-t Geometric Mean Ratio (%) (test/reference)” value ([2]; Mild versus Control) was 117.44%. The “AUC0-tau Geometric Mean Ratio (%) (test/reference)” value ([2]; Mild versus Control) was 75.30%, the “Cmax Geometric Mean Ratio (%) (test/reference)” value ([2]; Mild versus Control) was 121.08% and the “AUC0-t Geometric Mean Ratio (%) (test/reference)” value ([2]; Moderate versus Control) was 117.83%. The “AUC0-tau Geometric Mean Ratio (%) (test/reference)” value ([2]; Moderate versus Control) was 71.58%, the “Cmax Geometric Mean Ratio (%) (test/reference)” value ([2]; Moderate versus Control) was 105.36% and the “AUC0-t Geometric Mean Ratio (%) (test/reference)” value ([2]; Severe versus Control) was 109.95%. For the same compound, the “AUC0-tau Geometric Mean Ratio (%) (test/reference)” value ([2]; Severe versus Control) was 58.86%, the “Cmax Geometric Mean Ratio (%) (test/reference)” value ([2]; Severe versus Control) was 77.69% and the “Accumulation on Day 5” value ([2]; any of the hepatic impaired cohorts) was “No accumulation”. It also gave an AUC(0-t) ([2]; healthy control subjects, read-out: AUC0-t (Reference Group)) of 7550 ng·h/mL, an AUC ([2]; healthy control subjects, read-out: AUC0-tau (Reference Group)) of 10500 ng·h/mL and a Cmax ([2]; healthy control subjects, read-out: Cmax (Reference Group)) of 649 ng/mL. The Cmax ([2]; mild hepatic impairment, 800 mg Day 1, 400 mg Days 2-5, read-out: Cmax (Test Group)) was 786 ng/mL, the AUC(0-t) ([2]; mild hepatic impairment, read-out: AUC0-t (Test Group)) was 8870 ng·h/mL and the AUC ([2]; mild hepatic impairment, read-out: AUC0-tau (Test Group)) was 7900 ng·h/mL. It also gave an AUC(0-t) ([2]; moderate hepatic impairment, read-out: AUC0-t (Test Group)) of 8900 ng·h/mL, an AUC ([2]; moderate hepatic impairment, read-out: AUC0-tau (Test Group)) of 7510 ng·h/mL and a Cmax ([2]; moderate hepatic impairment, read-out: Cmax (Test Group)) of 684 ng/mL. For the same compound, the AUC(0-t) ([2]; severe hepatic impairment, read-out: AUC0-t (Test Group)) was 8310 ng·h/mL, the AUC ([2]; severe hepatic impairment, read-out: AUC0-tau (Test Group)) was 6180 ng·h/mL and the Cmax ([2]; severe hepatic impairment, read-out: Cmax (Test Group)) was 504 ng/mL. It also gave a half-life ([2]; control) of 8.9 h, a half-life ([2]; mild hepatic impairment) of 10.2 h and a half-life ([2]; moderate hepatic impairment) of 10.4 h. The half-life ([2]; severe hepatic impairment) was 15.7 h, the “Mean plasma protein binding percentage at Day 5 Cmax” value ([2]; mild or moderate hepatic impairment vs control) was “not significantly affected” and the “Mean plasma protein binding percentage at Day 5 Cmax” value ([2]; severe cohort vs control) was “slightly lower”.
